The values that follow come from patent publication US8546579B2, “Bicycloheteroaryl compounds as P2X7 modulators and uses thereof” (Evotec (US) Inc., priority 2006, dated 2013).

The target of the test is T1, P2X7 receptor (Homo sapiens, UniProt Q99572).
T1 construct: host or cells: THP-1 cells differentiated with LPS and IFN-γ
T1 sequence (Q99572 1-595): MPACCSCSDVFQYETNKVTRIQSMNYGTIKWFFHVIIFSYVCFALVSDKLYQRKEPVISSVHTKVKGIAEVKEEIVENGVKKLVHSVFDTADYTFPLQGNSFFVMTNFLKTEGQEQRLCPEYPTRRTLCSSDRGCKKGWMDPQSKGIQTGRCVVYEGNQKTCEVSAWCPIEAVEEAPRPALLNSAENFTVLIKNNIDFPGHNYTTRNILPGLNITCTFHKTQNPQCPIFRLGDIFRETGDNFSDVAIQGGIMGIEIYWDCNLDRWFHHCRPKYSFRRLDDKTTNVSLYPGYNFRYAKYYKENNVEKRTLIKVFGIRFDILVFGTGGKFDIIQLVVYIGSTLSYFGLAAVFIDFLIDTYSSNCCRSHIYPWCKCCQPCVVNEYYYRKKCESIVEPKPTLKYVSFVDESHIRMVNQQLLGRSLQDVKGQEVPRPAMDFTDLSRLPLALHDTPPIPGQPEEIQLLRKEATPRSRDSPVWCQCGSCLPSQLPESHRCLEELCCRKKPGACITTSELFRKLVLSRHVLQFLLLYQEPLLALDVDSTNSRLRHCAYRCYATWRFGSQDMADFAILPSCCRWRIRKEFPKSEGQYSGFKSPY
Put plainly: IL-1β release assay in differentiated THP-1 cells stimulated with BzATP (Example 9). Type of test: cell-based. The arrangement: inhibition: dose or concentration left out as unconfirmed. The conditions noted are these: for inhibition: THP-1, read-out: IL-1β % Inhib.; for inhibition at 0.3 µM: 0.3 μM compound, read-out: IL-1β % Inhib. @ 0.3 μM; for inhibition at 0.3 µM / inhibition at 0.1 µM: differentiated THP-1 cells, BzATP 250 uM; for IC50: THP-1 cells, BzATP-stimulated IL-1β release, four parameter logistic fit; for inhibition at 0.1 µM: 0.1 μM compound. Here is the method: THP-1 cells (ATCC Cat # 285-IF-100) are plated in 96 well plates at a concentration of 200,000 cells per well and allowed to differentiate in RPMI-1640 media (ATCC Cat # 30-2001) containing 10% FBS, 100 IU/mL penicillin, 100 ug/mL streptomycin, 100 ng/mL LPS and 100 ng/mL IFN-γ for 16 hours. Following differentiation, the cells are treated for an additional 2 hours in RPMI-1640 media containing 100 IU/mL penicillin, 100 ug/mL streptomycin and fresh LPS at 100 ng/mL. The cells are then pretreated for 30 minutes with the compound of interest at the appropriate concentration in RPMI media containing 100 IU/mL penicillin, 100 ug/mL streptomycin. Following the pretreatment 2′,3′-O-(4-benzoylbenzoyl)-adenosine 5′-triphosphate (Sigma Aldrich Cat # B6396) is added to a final concentration of 250 uM and the cells are incubated for an additional 45 minutes. 30 uL of cell supernatant is then collected and IL-1β levels determined via ELISA (R&D systems Cat. # HSLB50) according to manufacturer's recommendations using the Tecan Safire plate reader. Background adjusted IL-1β levels of drug treated and non-treated cells are used to calculate the percent inhibition.
The compounds set forth in Table 1 were tested for activity in a cellular model as described herein. Specifically, cells were pretreated with differing amounts of the compound under test and released IL-1β determined as in Example 9, above. Measurements were made and IC50 values, presented in Table 2, below, were determined by fitting the data to a four parameter logistic equation using GraphPad Prism software (GraphPad Software, Inc). The equation may be expressed by the following formula: Y=Bottom+(Top−Bottom)/(1+10^((Log EC50−X)*HillSlope)) Where X is the logarithm of concentration, Y is the response and Y starts at Bottom and goes to Top with a sigmoid shape.

The mark [1] stands for this setting: "*" class symbols, read-out: IL-1β % Inhib. ("*" symbols: at 0.1 μM).
[2] abbreviates: '*' class symbols, read-out: IL-1β % Inhib. (asterisk classes, 0.1 μM).

Read-outs that look alike come from different tables or passages of the source.

`O=C(CCc1cccc(Cl)c1)Nc1cccc2c(=O)n(CCCN3CCCC3=O)ccc12` [Compound 1547]: the inhibition is 0 to 25%.

`Cc1cccc(CCC(=O)Nc2cccc3c(=O)n(CCCN4CCCC4=O)ccc23)c1` [Compound 1542]: the inhibition is 0 to 25%.

As to `Cc1cccc(C(=O)Nc2cccc3c(=O)n(CCCN4CCCC4=O)ccc23)c1Cl` [Compound 1544], the inhibition is 0 to 25%.

With `Cc1ccccc1CC(=O)Nc1cccc2c(=O)n(CC3CCOCC3)ccc12` [Compound 1101], where the note is “'+' class symbols”, the inhibition at 0.3 µM was 0 to 25%.

As to `COCCn1ccc2c(NC(=O)Cc3cc(OC)cc(OC)c3)cccc2c1=O` [Compound 1322], where the note is “symbols + to ++++”, the inhibition at 0.3 µM lay within 0 to 25%.

In the case of `CCOc1ccccc1CC(=O)Nc1cccc2c(=O)n(CCN(C)C)ccc12` [Compound 1177], for the setting “'+' class symbols”, the inhibition at 0.3 µM was in the range of 0 to 25%.

As to `COCCn1ccc2c(NC(=O)Cc3ccccc3OC)cccc2c1=O` [Compound 1437], the inhibition was 0 to 25%.

In the case of `CC(=O)OCCn1ccc2c(NC(=O)CC3(O)CCCCCC3)cccc2c1=O` [Compound 1015], the IC50 (usually the concentration that inhibits the measured activity by half) was found to be 171 nM. Also, where the note is “'+' class symbols”, the inhibition at 0.3 µM was not below 76%.

For `CS(=O)(=O)CCn1ccc2c(NC(=O)CC3(O)CCCCCC3)cccc2c1=O` [Compound 1625], the IC50 is more than 1000 nM. Further, the inhibition at 0.3 µM ("+" class symbols) is 0 to 25%.

On to `Cc1ccc(C(=O)Nc2cccc3c(=O)n(CCCN4CCCC4=O)ccc23)c(C)c1` [Compound 1509], for which the inhibition was 0 to 25%.

As for `O=C(Nc1cccc2c(=O)n(CC3CCOCC3)ccc12)c1ccc2c(c1)OCCCO2` [Compound 1118], under “'+' class symbols”, the inhibition at 0.3 µM lay within 0 to 25%.

Regarding `CC(C)(C)Cn1ccc2c(NC(=O)c3ccccc3Cl)cccc2c1=O` [Compound 1244], the inhibition at 0.3 µM (symbols + to ++++) lay within 0 to 25%.

Consider `COCCn1ccc2c(NC(=O)Cc3ccc4c(c3)OCO4)cccc2c1=O` [Compound 1321], for which the inhibition at 0.3 µM (symbols + to ++++) was 0 to 25%.

For `CC(C)(C)Cn1ccc2c(NC(=O)c3cccc4ccccc34)cccc2c1=O` [Compound 1249], the inhibition at 0.3 µM (symbols + to ++++) lay in the range of 0 to 25%.

As for `CN(C)CCn1ccc2c(NC(=O)c3cc4cc(Cl)ccc4o3)cccc2c1=O` [Compound 1182], the inhibition at 0.3 µM ('+' class symbols) fell in the range of 0 to 25%.

In the case of `COCCn1ccc2c(NC(=O)c3ccc(CC(C)C)cc3)cccc2c1=O` [Compound 1343], where the note is “symbols + to ++++”, the inhibition at 0.3 µM was 0 to 25%.

For the molecule `Cc1cc(C)cc(CC(=O)Nc2cccc3c(=O)n(CCN4CCOCC4)ccc23)c1` [Compound 1228], under “symbols + to ++++”, the inhibition at 0.3 µM was in the range of 0 to 25%.

Consider `Cc1cc(C)c(CC(=O)Nc2cccc3c(=O)n(CC(C)(C)C)ccc23)c(C)c1` [Compound 1050], for which, for the setting “'+' class symbols”, the inhibition at 0.3 µM was 0 to 25%.

Regarding `COc1ccc(C(=O)Nc2cccc3c(=O)n(Cc4cccnc4)ccc23)cc1C` [Compound 1371], the inhibition at 0.3 µM (symbols + to ++++) lay in the range of 0 to 25%.

Take `Cc1ccc(C)c(C(=O)Nc2cccc3c(=O)n(CC(C)(C)C)ccc23)c1` [Compound 1414]: the inhibition is 0 to 25%.

For the molecule `Cc1cc(Cl)ccc1C(=O)Nc1cccc2c(=O)n(CCN3CCOCC3)ccc12` [Compound 1221], the inhibition at 0.3 µM (symbols + to ++++) lay within 0 to 25%.

With `O=C(CCc1cccc(Cl)c1)Nc1cccc2c(=O)n(Cc3ccc(OC(F)(F)F)cc3)ccc12` [Compound 1610], under setting [1], the inhibition at 0.1 µM lay within 0 to 25%.

For `Cc1cccc(CC(=O)Nc2cccc3c(=O)n(CC4CCOCC4)ccc23)c1` [Compound 1104], the inhibition at 0.3 µM ('+' class symbols) fell in the range of 0 to 25%.

`CC(=O)OCCn1ccc2c(NC(=O)CC3CCCCCC3)cccc2c1=O` [Compound 1375] registered a half-inhibitory concentration (IC50) of 86.7 nM. Moreover, the inhibition at 0.3 µM (symbols + to ++++) is not below 76%.

For the molecule `O=C(Nc1cccc2c(=O)n(CCN3CCOCC3)ccc12)[C@@]12C[C@@H]3C[C@@H](C[C@@H]1C3)C2` [Compound 1223], the inhibition at 0.3 µM (symbols + to ++++) was in the range of 0 to 25%.

As to `CC(C(=O)Nc1cccc2c(=O)n(CCN(C)C)ccc12)c1ccccc1` (stereo not drawn) [Compound 1148], the inhibition at 0.3 µM ('+' class symbols) lay within 0 to 25%.

As for `CC(C)Cc1ccc(C(=O)Nc2cccc3c(=O)n(Cc4cccnc4)ccc23)cc1` [Compound 1372], the inhibition at 0.3 µM (symbols + to ++++) lay within 0 to 25%.

For the molecule `CC1CCC(C(=O)Nc2cccc3c(=O)n(CCN(C)C)ccc23)CC1` (stereo not drawn) [Compound 1034], the inhibition at 0.1 µM under setting [2] was 26 to 50%.

With `Cc1cc(C(=O)Nc2cccc3c(=O)n(Cc4ccc(OC(F)(F)F)cc4)ccc23)ccc1Cl` [Compound 1559], the inhibition fell in the range of 0 to 25%.

As to `CN(C)CCn1ccc2c(NC(=O)c3cc(Cl)cc(Cl)c3)cccc2c1=O` [Compound 1143], the inhibition at 0.3 µM ('+' class symbols) was 0 to 25%.

Consider `O=C(Nc1cccc2c(=O)n(Cc3cccnc3)ccc12)c1ccccc1Cl` [Compound 1344], for which the inhibition at 0.3 µM (symbols + to ++++) fell in the range of 26 to 50%.

As for `CCOc1ccccc1CC(=O)Nc1cccc2c(=O)n(CC3CCOCC3)ccc12` [Compound 1126], the inhibition at 0.3 µM ('+' class symbols) is 0 to 25%.

Regarding `Cc1cc(Cl)ccc1C(=O)Nc1cccc2c(=O)n(CCN(C)C)ccc12` [Compound 1166], the inhibition at 0.3 µM ('+' class symbols) was in the range of 0 to 25%.

In the case of `CN(C)CCn1ccc2c(NC(=O)Cc3ccccc3)cccc2c1=O` [Compound 1019], the half-maximal inhibitory concentration (IC50) is more than 1000 nM. For the same molecule, for the setting “'+' class symbols”, the inhibition at 0.3 µM lay within 0 to 25%.

With `CN(C)CCn1ccc2c(NC(=O)c3cccc4c3OCCO4)cccc2c1=O` [Compound 1169], the inhibition at 0.3 µM ('+' class symbols) lay within 0 to 25%.

With `CN1CCC(Cn2ccc3c(NC(=O)CCc4cccc(Cl)c4)cccc3c2=O)CC1` [Compound 1492], the inhibition lay in the range of 0 to 25%.

As to `COCCn1ccc2c(NC(=O)CCc3cccc(C)c3)cccc2c1=O` [Compound 1338], for the setting “symbols + to ++++”, the inhibition at 0.3 µM was 0 to 25%.

Take `O=C(Nc1cccc2c(=O)n(Cc3ccc(OC(F)(F)F)cc3)ccc12)c1cccc2c1OCCO2` [Compound 1595]: the inhibition lay within 0 to 25%.

Consider `COc1ccc(CC(=O)Nc2cccc3c(=O)n(CC4CCN(C)CC4)ccc23)c(OC)c1` [Compound 1484], for which the inhibition lay in the range of 0 to 25%.

On to `Cc1cc(C)cc(CC(=O)Nc2cccc3c(=O)n(Cc4ccc(OC(F)(F)F)cc4)ccc23)c1` [Compound 1599], for which, under setting [1], the inhibition at 0.1 µM lay in the range of 0 to 25%.

For `CN(C)CCn1ccc2c(NC(=O)CC3CCN(C(=O)OC(C)(C)C)CC3)cccc2c1=O` [Compound 1010], the IC50 is more than 1000 nM. Besides, where the note is “'+' class symbols”, the inhibition at 0.3 µM was 0 to 25%.

Regarding `COc1ccc(OC)c(CC(=O)Nc2cccc3c(=O)n(Cc4cccnc4)ccc23)c1` [Compound 1352], under “symbols + to ++++”, the inhibition at 0.3 µM lay in the range of 0 to 25%.

`Cc1ccccc1C(=O)Nc1cccc2c(=O)n(CCN(C)C)ccc12` [Compound 1007] returned a concentration for half-maximal inhibition (IC50) of more than 1000 nM. For the same molecule, the inhibition at 0.3 µM ('+' class symbols) lay in the range of 0 to 25%.

In the case of `COCCn1ccc2c(NC(=O)c3cc(C)ccc3Cl)cccc2c1=O` [Compound 1440], the inhibition was 0 to 25%.

For the molecule `O=C(Cc1csc2ccccc12)Nc1cccc2c(=O)n(Cc3ccc(OC(F)(F)F)cc3)ccc12` [Compound 1597], the inhibition was 0 to 25%.

As to `CC(C)(C)c1ccc(C(=O)Nc2cccc3c(=O)n(CCCN4CCCC4=O)ccc23)cc1` [Compound 1516], the inhibition fell in the range of 0 to 25%.

Consider `COCCn1ccc2c(NC(=O)c3ccc(-c4ccccc4)o3)cccc2c1=O` [Compound 1063], for which, under setting [2], the inhibition at 0.1 µM fell in the range of 0 to 25%.

In turn, `COc1cccc(CC(=O)Nc2cccc3c(=O)n(CCN(C)C)ccc23)c1` [Compound 1021] showed a 50% inhibitory concentration (IC50) of more than 1000 nM. Besides, for the setting “'+' class symbols”, the inhibition at 0.3 µM is not below 76%.

Consider `CN(C)CCn1ccc2c(NC(=O)CC3CC4CC[C@H]3C4)cccc2c1=O` (stereo partly drawn) [Compound 1167], for which, where the note is “'+' class symbols”, the inhibition at 0.3 µM lay within 26 to 50%.

Turning to `CCOc1ccc(CC(=O)Nc2cccc3c(=O)n(CC4CCOCC4)ccc23)cc1` [Compound 1106], where the note is “'+' class symbols”, the inhibition at 0.3 µM lay within 0 to 25%.
